Among the test systems are Shigella dysenteriae; Klebsiella pneumoniae; Pseudomonas aeruginosa; Escherichia coli ML-35.
Test in all cases: ≥ marks a high value that may be exact or a test limit, other limits are often not marked, values filed in µg/mL are converted to µM
The test system of test [1] is Pseudomonas aeruginosa KCTC 2004.
Test [2] has as its system Pseudomonas aeruginosa CCARM 2095.
Test [3] deals with Staphylococcus aureus KCTC 1621.
In test [4] the test system is Staphylococcus aureus KCTC 1916.
Test [5] has as its system Staphylococcus aureus CCARM 3114.
Test [6] concerns Acinetobacter baumannii CCARM 12005.
Test [7] has as its system Pseudomonas aeruginosa CCARM 2003.
Test [8] has as its system Staphylococcus aureus CCARM 3090.
Test [9] deals with Pseudomonas aeruginosa CCARM 2002.
Test [10] concerns Escherichia coli CCARM 1229.
Test [11] has as its system Salmonella typhimurium CCARM 8009.
The test system of test [12] is Acinetobacter baumannii CCARM 12035.
The subject of test [13] is Bacillus subtilis KCTC 1021.
Test [14] concerns Escherichia coli KCTC 1682.
Test [15] concerns Salmonella typhimurium CCARM 8007.
Test [16] relates to Staphylococcus aureus CCARM 3108.
The test system of test [17] is Acinetobacter baumannii CCARM 12037.
Test [18] has as its system Pseudomonas aeruginosa CCARM 2163.
Test [19] deals with Acinetobacter baumannii CCARM 12036.
The test system of test [20] is Escherichia coli KCTC 2571.
The test system of test [21] is Staphylococcus aureus CCARM 3089.
The subject of test [22] is Bacillus subtilis KCTC 3068.
Test [23] deals with Salmonella typhimurium CCARM 8003.
Test [24] concerns Pseudomonas aeruginosa KCTC 2513.
Test [25] has as its system Escherichia coli CCARM 1238.
The subject of test [26] is Salmonella typhimurium KCTC 1926.
For test [27], the system named is Staphylococcus epidermidis KCTC 1917.
The test system of test [28] is Pseudomonas aeruginosa KCTC 1637.
The test system of test [29] is Escherichia coli KCTC 2593.
The test system of test [30] is Bacillus subtilis KCTC 1022.
The subject of test [31] is Staphylococcus aureus KCTC 3881.
In test [32] the test system is Staphylococcus aureus CCARM 3126.
Test [33] has as its system Pseudomonas aeruginosa CMCCB 1010.
The test system of test [34] is Escherichia coli ATCC 25922.
Test [35] has as its system Pseudomonas aeruginosa ATCC 27853.
Test [36] concerns Staphylococcus aureus ATCC 25923.
The subject of test [37] is Enterococcus faecalis ATCC 29212.
Test [38] concerns Salmonella enterica subsp. enterica serovar Typhimurium ATCC 14028.
Test [39] concerns Serratia marcescens ATCC 8100.

Consider 3 molecules from DBAASP.

≈ marks a conversion by molar mass, not a printed value.

In the case of `CC[C@H](C)[C@H](NC(=O)CNC(=O)[C@H](CCCN=C(N)N)NC(=O)[C@H](C)NC(=O)[C@@H](NC(=O)[C@H](Cc1cnc[nH]1)NC(=O)[C@H](Cc1cnc[nH]1)NC(=O)[C@H](Cc1ccccc1)NC(=O)[C@@H](N)Cc1ccccc1)[C@@H](C)CC)C(=O)N[C@H](C(=O)N[C@@H](Cc1cnc[nH]1)C(=O)N[C@H](C(=O)NCC(=O)N[C@@H](CCCCN)C(=O)N[C@H](C(=O)N[C@H](C(=O)N[C@@H](Cc1cnc[nH]1)C(=O)N[C@@H](CCCN=C(N)N)C(=O)N[C@@H](CC(C)C)C(=O)N[C@H](C(=O)N[C@H](C(=O)NCC(=O)O)[C@@H](C)O)C(C)C)[C@@H](C)CC)[C@@H](C)O)C(C)C)C(C)C` [FFHHIARGIVHVGKTIHRLVTG], the MIC in test [1] is 8 µM (≈ 20 µg/mL); in test [2] it was 4 µM (≈ 9.98 µg/mL); in test [3], 4 µM (≈ 9.98 µg/mL); in test [4], 2 µM (≈ 4.99 µg/mL); in test [5], 16 µM (≈ 39.9 µg/mL); in test [6] it was 4 µM (≈ 9.98 µg/mL). Also, the MIC was 4 µM (≈ 9.98 µg/mL) in [7]; not below 32 µM in test [8]; 4 µM (≈ 9.98 µg/mL) in test [9]; not below 32 µM in [10]; 16 µM (≈ 39.9 µg/mL) in [11]; 4 µM (≈ 9.98 µg/mL) in test [12]. Also, the MIC in [13] worked out at 16 µM (≈ 39.9 µg/mL); in test [14], 2 µM (≈ 4.99 µg/mL); in test [15], 16 µM (≈ 39.9 µg/mL); in [16] it was 16 µM (≈ 39.9 µg/mL); in test [17], 4 µM (≈ 9.98 µg/mL); in [18], 4 µM (≈ 9.98 µg/mL). The MIC in [19] is 4 µM (≈ 9.98 µg/mL); in test [20], 4 µM (≈ 9.98 µg/mL); in [21], not below 32 µM; in [22], 4 µM (≈ 9.98 µg/mL); in test [23] it was not below 32 µM; in test [24], 16 µM (≈ 39.9 µg/mL). Also, the MIC in [25] was not below 32 µM; in test [26], 16 µM (≈ 39.9 µg/mL); in test [27] it was 4 µM (≈ 9.98 µg/mL); in test [28] it was 4 µM (≈ 9.98 µg/mL); in test [29] it was 2 µM (≈ 4.99 µg/mL); in test [30], 2 µM (≈ 4.99 µg/mL). Further, the results for the MIC in test [31] and in test [32] were 4 µM (≈ 9.98 µg/mL) and 16 µM (≈ 39.9 µg/mL), respectively.
On to `CC[C@H](C)[C@H](NC(=O)[C@H](CC(C)C)NC(=O)[C@@H](NC(=O)[C@@H](NC(=O)[C@H](C)NC(=O)[C@@H](NC(=O)[C@H](CC(N)=O)NC(=O)[C@H](CCCCN)NC(=O)[C@H](C)NC(=O)[C@@H](NC(=O)[C@H](CC(N)=O)NC(=O)[C@H](CCCCN)NC(=O)[C@H](C)NC(=O)[C@@H](NC(=O)[C@H](CC(=O)O)NC(=O)[C@H](CCSC)NC(=O)[C@H](Cc1ccccc1)NC(=O)CN)[C@@H](C)O)C(C)C)C(C)C)C(C)C)[C@@H](C)O)C(=O)N[C@@H](CC(=O)O)C(=O)N[C@@H](CCCCN)C(=O)N[C@@H](CC(C)C)C(=O)N[C@@H](CCCN=C(N)N)C(=O)N[C@H]1CSSC[C@@H](C(=O)O)NC(=O)CNC(=O)CNC(=O)[C@H]([C@@H](C)O)NC(=O)[C@H](C(C)C)NC(=O)[C@H](CCCCN)NC1=O` [GFMDTAKNVAKNVAVTLIDKLRCKVTGGC], for which the MIC is not below 50 µM in the test with Shigella dysenteriae; 50 µM (≈ 153 µg/mL) in the test on Klebsiella pneumoniae; 20 µM (≈ 61 µg/mL) in test [33]; 13 µM (≈ 39.7 µg/mL) in test [34]; 50 µM (≈ 153 µg/mL) with Pseudomonas aeruginosa; 33 µM (≈ 101 µg/mL) in test [35]. For the same molecule, the MIC in test [36] and in test [37] was 20 µM (≈ 61 µg/mL) in each case.
Take `CC[C@H](C)[C@H](NC(=O)[C@@H]1CCCN1C(=O)[C@H](CCCN=C(N)N)NC(=O)[C@@H]1CCCN1C(=O)CNC(=O)[C@@H]1CCCN1C(=O)[C@H](CCCN=C(N)N)NC(=O)[C@@H]1CCCN1C(=O)[C@H](Cc1ccccc1)NC(=O)[C@@H]1CCCN1C(=O)[C@H](CC(C)C)NC(=O)[C@@H]1CCCN1C(=O)[C@H](CCCN=C(N)N)NC(=O)[C@@H]1CCCN1)C(=O)O` [PRPLPFPRPGPRPI]: the minimal inhibitory concentration (MIC) in [38] was more than 128 µM; in test [39] it was not below 128 µM; in test [34], more than 128 µM; in test [36], more than 128 µM; with Escherichia coli ML-35, not below 128 µM.

Usually MIC stands for the lowest concentration found to suppress growth. Read a low MIC as inhibition by little substance.
